Key:
Experiment in all cases: relative viability (nuclei count vs DMSO), 5 days (fraction); higher = more cells survive
Tanzisertib + Crizotinib = compound: O[C@H]1CC[C@H](Nc2ncc3nc(Nc4c(F)cc(F)cc4F)n([C@H]4CCOC4)c3n2)CC1 [Tanzisertib] + C[C@@H](Oc1cc(-c2cnn(C3CCNCC3)c2)cnc1N)c1c(Cl)ccc(F)c1Cl [Crizotinib] (partner 1 µM)
Summary of the method: (§1)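 For relative viability, nuclei counts in treated wells were divided by those in vehicle wells. Lung cancer cell lines had been pin-tool dosed in 1536-well plates the day after seeding and cultured for 5 days, then fixed and stained in one step (final 0.05% Triton X-100, 1% formaldehyde, 1 ug/ml Hoechst) and imaged at 4×. Doses were one drug alone or a fixed anchor-drug dose plus five library-drug doses (not always all listed) in √10 steps, and values are duplicate-plate medians.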

[1] = compound: C1CNCCC1C2=CC(=NN2)C3=CC=NC=C3 + Nc1nc2[nH]cc(CCc3ccc(C(=O)N[C@@H](CCC(=O)O)C(=O)O)cc3)c2c(=O)[nH]1 [Pemetrexed] (partner 0.2 µM)
Summary of the method: as §1

[2] = compound: C1CNCCC1C2=CC(=NN2)C3=CC=NC=C3 + O=C(CCCCCCC(=O)Nc1ccccc1)NO [Vorinostat] (partner 1 µM)
Summary of the method: as §1

[3] = compound: C[C@@H](N)c1ccc(C(=O)Nc2ccnc3[nH]ccc23)cc1 + O=C(CCCCCCC(=O)Nc1ccccc1)NO [Vorinostat] (partner 1 µM)
Summary of the method: as §1

Question: With UMC-11 as the cell line, how does the relative viability (Tanzisertib + Crizotinib; first compound 0.08 µM) read?
Answer: 0.654

Question: What about the relative viability (Tanzisertib + Crizotinib; first compound 0.253 µM) of the same cell line?
Answer: 0.703

Question: And the relative viability (Tanzisertib + Crizotinib; first compound 0.8 µM)?
Answer: 0.631

Question: And the relative viability (Tanzisertib + Crizotinib; first compound 2.53 µM)?
Answer: 0.687

Question: What about the relative viability (Tanzisertib + Crizotinib; first compound 8 µM) of the same cell line?
Answer: 0.675

Question: What about the relative viability ([1]; first compound 0.08 µM) of the same cell line?
Answer: 0.653

Question: What about the relative viability ([1]; first compound 0.8 µM) of the same cell line?
Answer: 0.9

Question: And the relative viability ([1]; first compound 2.53 µM)?
Answer: 0.874

Question: And the relative viability ([1]; first compound 8 µM)?
Answer: 0.811

Question: And the relative viability ([2]; first compound 0.08 µM)?
Answer: 0.394

Question: What about the relative viability ([2]; first compound 0.8 µM) of the same cell line?
Answer: 0.419

Question: What about the relative viability ([2]; first compound 2.53 µM) of the same cell line?
Answer: 0.392

Question: What about the relative viability ([2]; first compound 8 µM) of the same cell line?
Answer: 0.565

Question: What about the relative viability ([3]; first compound 0.04 µM) of the same cell line?
Answer: 0.459

Question: What about the relative viability ([3]; first compound 0.1265 µM) of the same cell line?
Answer: 0.514

Question: And the relative viability ([3]; first compound 0.4 µM)?
Answer: 0.515

Question: And the relative viability ([3]; first compound 1.265 µM)?
Answer: 0.504

Question: What about the relative viability ([3]; first compound 4 µM) of the same cell line?
Answer: 0.356

— the supplement of paper PMC10307832
